For 46 molecules, IC50 results are on record in BindingDB's records for patent US20250313563 (The Broad Institute, 2025).

Test [1] addresses Glycogen synthase kinase-3 alpha (Homo sapiens, UniProt P49840). In words: TR-FRET Assay. An outline of the steps:
(§1)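 30 min preinc w/ cpd in assay buffer → kinase rxn → EDTA quench → add detection mix (40 nM SA-d2, 2 nM Tb-pSer641 Ab) → TR-FRET read.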

In test [2] the target is Glycogen synthase kinase-3 beta (Homo sapiens, UniProt P49841). The test can be described thus: TR-FRET Assay. An outline of the steps:
as §1
Background: In TR-FRET formats the signal depends on donor and acceptor labels being close together.

Where “and” joins values, the source holds several entries; their conditions need not be identical. Identical values can stand only once.

Chain of Glycogen synthase kinase-3 alpha (P49840 whole entry): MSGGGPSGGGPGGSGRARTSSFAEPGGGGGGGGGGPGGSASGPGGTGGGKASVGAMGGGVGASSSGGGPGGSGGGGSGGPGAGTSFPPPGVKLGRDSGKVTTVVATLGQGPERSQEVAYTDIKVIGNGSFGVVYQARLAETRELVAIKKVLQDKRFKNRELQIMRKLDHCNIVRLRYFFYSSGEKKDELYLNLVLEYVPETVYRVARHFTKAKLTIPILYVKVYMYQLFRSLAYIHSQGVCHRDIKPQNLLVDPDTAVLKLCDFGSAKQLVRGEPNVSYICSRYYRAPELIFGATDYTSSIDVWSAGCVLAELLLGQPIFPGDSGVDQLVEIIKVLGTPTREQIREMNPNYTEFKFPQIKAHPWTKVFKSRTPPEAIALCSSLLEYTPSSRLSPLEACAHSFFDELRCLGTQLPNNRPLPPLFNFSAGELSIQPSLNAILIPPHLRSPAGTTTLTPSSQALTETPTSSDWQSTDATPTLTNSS
Chain of Glycogen synthase kinase-3 beta (P49841 whole entry): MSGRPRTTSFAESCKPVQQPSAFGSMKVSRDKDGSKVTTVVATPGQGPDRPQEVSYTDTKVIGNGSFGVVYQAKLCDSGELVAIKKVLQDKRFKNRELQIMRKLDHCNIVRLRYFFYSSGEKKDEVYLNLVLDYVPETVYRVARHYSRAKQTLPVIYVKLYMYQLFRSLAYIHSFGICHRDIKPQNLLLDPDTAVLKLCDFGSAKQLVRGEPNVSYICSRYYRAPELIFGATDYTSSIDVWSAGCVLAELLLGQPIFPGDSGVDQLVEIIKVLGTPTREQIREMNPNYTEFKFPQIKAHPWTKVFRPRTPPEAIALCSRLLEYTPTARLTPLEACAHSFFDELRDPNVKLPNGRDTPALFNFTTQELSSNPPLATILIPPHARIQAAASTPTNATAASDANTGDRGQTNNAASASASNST

A word on the IC50: it is the concentration needed to halve the response being measured. Take `CC[C@@]1(c2cccc(-c3ccnc4cnccc34)c2)C2=CN=NC2NC2=C1C(=O)NC(C)(C)C2` (some centres not stated) [US20250313563, Compound 949110]: the IC50 is 1000 to 5000 nM in test [1] and above 5000 nM in test [2].

With `CCC1(c2cccc(N(C)c3cccnc3C)c2)C2=CN=NC2NC2=C1C(=O)CC(C)(C)C2` (configuration not stated) [US20250313563, Compound 885355], the IC50 fell in the range of 100 to 1000 nM in test [1] and 1000 to 5000 nM in test [2].

Turning to `CC(=O)N1CC2(C1)C[C@@]1(CO2)C2=C(N=NC2)NC2=C1C(=O)CC(C)(C)C2` [US20250313563, Compound 926861], the concentration for half-maximal inhibition (IC50) in test [1] and in test [2] was below 100 nM in each case.

Turning to `CCC1(c2cccc(S(=O)(=O)CC3CC3)c2)C2=CN=NC2NC2=C1C(=O)CC(C)(C)C2` (configuration not stated) [US20250313563, Compound 913257], the IC50 in test [1] and in test [2] was below 100 nM in each case.

Take `CC1(C)CC(=O)C2=C(C1)NC1N=NC=C1C21CCCS(=O)(=O)CC1` (configuration not stated) [US20250313563, Compound 927343]: the 50% inhibitory concentration (IC50) in test [1] is below 100 nM; in test [2], 100 to 1000 nM.

Consider `COc1cccc(S(=O)(=O)N2CC3(C2)C2=C(N=NC2)NC2=C3C(=O)CC(C)(C)C2)c1` [US20250313563, Compound 918276], for which the IC50 in test [1] and in test [2] was below 100 nM throughout.

For the molecule `CC1(C)CC(=O)C2=C(C1)NC1=C(CN=N1)C21CN(C2CCCCC2)C1` [US20250313563, Compound 929446], the IC50 in test [1] and in test [2] was 1000 to 5000 nM throughout.

Regarding `CCC1(c2cccc(C(F)(F)F)c2)C2=CN=NC2NC2=C1C(=O)N(c1ccc(OC)cc1)CC2` (configuration not stated) [US20250313563, Compound 947332], the IC50 in test [1] is below 100 nM; in test [2], 100 to 1000 nM.

As for `CCC1(c2cccc(-c3ccnc(O)c3)c2)C2=CN=NC2NC2=C1C(=O)CC(C)(C)C2` (configuration not stated) [US20250313563, Compound 913352], the IC50 in test [1] and in test [2] was below 100 nM in each case.

With `CC[C@@]1(c2ccccc2)C2=CN=NC2NC2=C1C(=O)[C@H](C)C[C@@H]2C` (some centres not stated) [US20250313563, Compound 909217], the IC50 in test [1] was 100 to 1000 nM; in test [2], 1000 to 5000 nM.

Turning to `CC[C@@]1(c2cccc(-c3ccnn3C)c2)C2=CN=NC2NC2=C1C(=O)N[C@]1(CCCOC1)C2` (some centres not stated) [US20250313563, Compound 948529], the IC50 in test [1] was < 100 nM and 100 to 1000 nM; in test [2], 100 to 1000 nM and 1000 to 5000 nM.

In the case of `CC[C@@]1(c2cccc(C(F)(F)F)c2)C2=CN=NC2NC2=C1C(=O)N(c1cnc(OC)nc1)CC2` (some centres not stated) [US20250313563, Compound 949127], the IC50 in test [1] is 1000 to 5000 nM; in test [2], above 5000 nM.

For `O=C1CC(c2ccccc2)CC2=C1C1(CCOCC1)C1=C(N=NC1)N2` (configuration not stated) [US20250313563, Compound 893309], the IC50 in test [1] lay in the range of 100 to 1000 nM; in test [2], 1000 to 5000 nM.

`CC[C@]1(c2cccc(-c3cn(C)nc3C(C)C)c2)C2=CN=NC2NC2=C1C(=O)NC(C)(C)C2` (some centres not stated) [US20250313563, Compound 949106]: the IC50 in test [1] is 1000 to 5000 nM; in test [2], above 5000 nM.

Consider `CC[C@@]1(c2cccc(-c3ccncc3CO)c2)C2=CN=NC2NC2=C1C(=O)CC(C)(C)C2` (some centres not stated) [US20250313563, Compound 945479], for which the half-inhibitory concentration (IC50) in test [1] fell in the range of 100 to 1000 nM; in test [2], 1000 to 5000 nM.

For the molecule `CCC1(c2cccc(-c3ccnc(C)c3C)c2)C2=CN=NC2NC2=C1C(=O)NC(C)(C)C2` (configuration not stated) [US20250313563, Compound 945994], the IC50 in test [1] is below 100 nM; in test [2], 100 to 1000 nM.

On to `CC[C@@]1(c2cccc(-c3c(C)cncc3C)c2)C2=CN=NC2NC2=C1C(=O)CC(C)(C)C2` (some centres not stated) [US20250313563, Compound 947659], for which the figures for the IC50 in test [1] and in test [2] were below 100 nM and 100 to 1000 nM, respectively.

Consider `CC1(C)CC(=O)C2=C(C1)NC1=C(CN=N1)C21CCC(C(F)(F)F)CC1` (configuration not stated) [US20250313563, Compound 865193], for which the IC50 in test [1] is < 100 nM and 100 to 1000 nM; in test [2], < 100 nM and 1000 to 5000 nM.

Regarding `CC1(C)CC(=O)C2=C(C1)NC1=C(CN=N1)C2(C)c1cccc(-c2ccccc2)c1` (configuration not stated) [US20250313563, Compound 789513], the IC50 in test [1] and in test [2] was 100 to 1000 nM throughout.

For the molecule `CC[C@]1(c2cccc(-c3cn(C)nc3C)c2)C2=C(CC(C)(C)NC2=O)NC2N=NC(C)=C21` (some centres not stated) [US20250313563, Compound 945996], the IC50 was in the range of 100 to 1000 nM in test [1] and 1000 to 5000 nM in test [2].

Turning to `CC[C@@]1(c2cccc(-c3ccnc(CCO)c3)c2)C2=CN=NC2NC2=C1C(=O)CC(C)(C)C2` (some centres not stated) [US20250313563, Compound 947810], the IC50 was below 100 nM in test [1] and 100 to 1000 nM in test [2].

For the molecule `CC[C@]1(c2cccc(-c3ccnc4c3CCC4)c2)C2=C(CC(C)(C)NC2=O)NC2N=NC(C(F)(F)F)=C21` (some centres not stated) [US20250313563, Compound 948769], the IC50 in test [1] and in test [2] was 100 to 1000 nM in each case.

`CC1(C)CC(=O)C2=C(C1)NC1N=NC(C(F)(F)F)=C1[C@@]21CCc2c(F)cccc21` (some centres not stated) [US20250313563, Compound 806568]: the IC50 is 1000 to 5000 nM in test [1] and 100 to 1000 nM in test [2].

With `CC[C@@]1(c2cccc(-c3ccnc(C)c3)c2)C2=CN=NC2NC2=C1C(=O)C[C@H](C)C2` (some centres not stated) [US20250313563, Compound 932657], the values for the IC50 in test [1] and in test [2] were below 100 nM and 1000 to 5000 nM, respectively.

Consider `CCCn1nccc1-c1cccc(C2(CC)C3=CN=NC3NC3=C2C(=O)CC(C)(C)C3)c1` (configuration not stated) [US20250313563, Compound 929400], for which the IC50 in test [1] and in test [2] was below 100 nM in each case.

Consider `CC1(C)CC(=O)C2=C(C1)NC1=C(CN=N1)C21CCN(S(=O)(=O)C2=CN=C3CC=CC=C3C2)CC1` [US20250313563, Compound 947462], for which the IC50 was < 100 nM and 100 to 1000 nM in test [1]; < 100 nM and 1000 to 5000 nM in test [2].

With `CCC1(c2cccc(-c3cncn3C)c2)C2=C(CC(C)(C)NC2=O)NC2N=NC(C)=C21` (configuration not stated) [US20250313563, Compound 947565], the IC50 in test [1] and in test [2] was below 100 nM throughout.

For `CC[C@@]1(c2cccc(-c3c(F)cncc3OC)c2)C2=CN=NC2NC2=C1C(=O)NC(C)(C)C2` (some centres not stated) [US20250313563, Compound 948150], the IC50 in test [1] is below 100 nM; in test [2] it was < 100 nM and 100 to 1000 nM.

For `CCC1(c2cccc(N(C)c3cccc(F)n3)c2)C2=CN=NC2NC2=C1C(=O)CC(C)(C)C2` (configuration not stated) [US20250313563, Compound 918274], the IC50 in test [1] was below 100 nM; in test [2], 100 to 1000 nM.

`CC[C@@]1(c2cccc(C(F)(F)F)c2)C2=C(N=NC2)NC2=C1C(=O)N(Cc1ccccc1)C2` [US20250313563, Compound 929389]: the IC50 in test [1] was 1000 to 5000 nM; in test [2] it was above 5000 nM.

Regarding `CC[C@@]1(c2cccc(-c3ccncc3C3CC3)c2)C2=CN=NC2NC2=C1C(=O)NC(C)(C)C2` (some centres not stated) [US20250313563, Compound 950059], the IC50 is < 100 nM and 100 to 1000 nM in test [1]; < 100 nM and 1000 to 5000 nM in test [2].

For the molecule `CC[C@@]1(c2cccc(C3=C4CC=C(C)N=C4N=CC3)c2)C2=CN=NC2NC2=C1C(=O)NC(C)(C)C2` (some centres not stated) [US20250313563, Compound 948143], the IC50 in test [1] is below 100 nM; in test [2] it was 100 to 1000 nM.

As for `CC[C@@]1(c2cccc(-c3ccncc3F)c2)C2=C(CC(C)(C)CC2=O)NC2N=NC(C)=C21` (some centres not stated) [US20250313563, Compound 913017], the IC50 in test [1] and in test [2] was 100 to 1000 nM in each case.

`CC[C@]1(c2cccc(S(=O)(=O)C3CC3)c2)C2=C(CC(C)(C)CC2=O)NC2N=NC(C(F)(F)F)=C21` (some centres not stated) [US20250313563, Compound 945715]: the IC50 in test [1] and in test [2] was below 100 nM throughout.

Consider `CC[C@@]1(c2cccc(N(C)c3ccnc(OC)c3)c2)C2=CN=NC2NC2=C1C(=O)CC(C)(C)C2` (some centres not stated) [US20250313563, Compound 932662], for which the IC50 in test [1] and in test [2] was above 5000 nM throughout.

For `Cc1cnccc1[C@H]1CC[C@]2(CC1)C1=C(N=NC1)NC1=C2C(=O)CC(C)(C)C1` [US20250313563, Compound 949318], the IC50 in test [1] and in test [2] was 100 to 1000 nM throughout.

As for `CCC1(c2cccc(-c3ccncc3CO)c2)C2=CN=NC2NC2=C1C(=O)CC(C)(C)C2` (configuration not stated) [US20250313563, Compound 943539], the IC50 in test [1] and in test [2] was below 100 nM throughout.

In the case of `Cn1cc(S(=O)(=O)N2CC[C@@]3(C2)C2=C(N=NC2)NC2=C3C(=O)CC(C)(C)C2)cn1` [US20250313563, Compound 943483], the IC50 in test [1] and in test [2] was below 100 nM each time.

For the molecule `CC1(C)CC(=O)C2=C(C1)NC1=C(CN=N1)C21CCN(S(C)(=O)=O)CC1` [US20250313563, Compound 880776], the IC50 in test [1] and in test [2] was below 100 nM in each case.

Take `CCC1(c2cccc(-c3cnn(C4CC4)c3)c2)C2=C(CC(C)(C)CC2=O)NC2N=NC(C)=C21` (configuration not stated) [US20250313563, Compound 883997]: the IC50 in test [1] is below 100 nM; in test [2] it was 100 to 1000 nM.

Regarding `CC[C@H]1C[C@@]2(CO1)C1=C(N=NC1)NC1=C2C(=O)CC(C)(C)C1` [US20250313563, Compound 913216], the IC50 in test [1] and in test [2] was 100 to 1000 nM each time.

`CCC1(c2cccc(-c3ccnc4c3CCC4)c2)C2=C(CC(C)(C)NC2=O)NC2N=NC(C(F)(F)F)=C21` (configuration not stated) [US20250313563, Compound 947862]: the IC50 in test [1] is below 100 nM; in test [2] it was < 100 nM and 100 to 1000 nM.

As for `CC[C@]1(c2cccc(C(F)(F)F)c2)C2=C(N=NC2)NC2=C1C(=O)NC2(C)C` [US20250313563, Compound 913451], the IC50 was below 100 nM in test [1] and 100 to 1000 nM in test [2].

`CC[C@@]1(c2cccc(OCC(F)F)c2)C2=CN=NC2NC2=C1C(=O)CC(C)(C)C2` (some centres not stated) [US20250313563, Compound 949113]: the IC50 in test [1] was 1000 to 5000 nM; in test [2], above 5000 nM.

On to `CC1(C)CC(=O)C2=C(C1)NC1N=NC=C1C21CCCN(S(=O)(=O)c2ccccc2)CC1` (configuration not stated) [US20250313563, Compound 889578], for which the IC50 in test [1] and in test [2] was below 100 nM each time.

Regarding `CC[C@]1(c2cccc(-c3cn(C)nc3C)c2)C2=C(CC(C)(C)NC2=O)NC2N=NC(F)=C21` (some centres not stated) [US20250313563, Compound 949176], the IC50 in test [1] is 1000 to 5000 nM; in test [2], above 5000 nM.
